This passage reports IC50 results from ChEMBL document CHEMBL1124275, “Synthesis and evaluation of multisubstrate inhibitors of an oncogene-encoded tyrosine-specific protein kinase. 1” (J Med Chem, 1988).

Molecular target in the first test: not listed separately
The test is described as follows: Inhibition of Phosphorylase (serine) Kinase activity.
Regarding `Nc1ncnc2c1ncn2[C@@H]1O[C@H](COC(=O)c2ccc(S(=O)(=O)Oc3ccccc3)cc2)[C@@H](O)[C@H]1O`, the half-inhibitory concentration (IC50) – broadly, the midpoint of a concentration-inhibition curve – was 80 µM.

For `Nc1ncnc2c1ncn2[C@@H]1O[C@H](COC(=O)c2ccc(S(=O)(=O)Nc3ccccc3)cc2)[C@@H](O)[C@H]1O`, the half-maximal inhibitory concentration (IC50) was 25 µM.

`Nc1ncnc2c1ncn2[C@@H]1O[C@H](COC(=O)c2ccc(S(N)(=O)=O)cc2)[C@@H](O)[C@H]1O` had an IC50 of 60 µM.

In turn, `Nc1ncnc2c1ncn2[C@@H]1O[C@H](COC(=O)c2ccc(S(=O)(=O)F)cc2)[C@@H](O)[C@H]1O` showed an IC50 of 250 µM.

Consider `Nc1ncnc2c1ncn2[C@@H]1O[C@H](COC(=O)c2ccc(S(=O)(=O)NCCCc3ccccc3)cc2)[C@@H](O)[C@H]1O`, for which half-maximal inhibition (IC50) was put at 50 µM.

For the next test, the target named is T1, Tyrosine-protein kinase transforming protein Abl (Abelson murine leukemia virus, UniProt P00521).
T1 sequence (P00521 whole entry): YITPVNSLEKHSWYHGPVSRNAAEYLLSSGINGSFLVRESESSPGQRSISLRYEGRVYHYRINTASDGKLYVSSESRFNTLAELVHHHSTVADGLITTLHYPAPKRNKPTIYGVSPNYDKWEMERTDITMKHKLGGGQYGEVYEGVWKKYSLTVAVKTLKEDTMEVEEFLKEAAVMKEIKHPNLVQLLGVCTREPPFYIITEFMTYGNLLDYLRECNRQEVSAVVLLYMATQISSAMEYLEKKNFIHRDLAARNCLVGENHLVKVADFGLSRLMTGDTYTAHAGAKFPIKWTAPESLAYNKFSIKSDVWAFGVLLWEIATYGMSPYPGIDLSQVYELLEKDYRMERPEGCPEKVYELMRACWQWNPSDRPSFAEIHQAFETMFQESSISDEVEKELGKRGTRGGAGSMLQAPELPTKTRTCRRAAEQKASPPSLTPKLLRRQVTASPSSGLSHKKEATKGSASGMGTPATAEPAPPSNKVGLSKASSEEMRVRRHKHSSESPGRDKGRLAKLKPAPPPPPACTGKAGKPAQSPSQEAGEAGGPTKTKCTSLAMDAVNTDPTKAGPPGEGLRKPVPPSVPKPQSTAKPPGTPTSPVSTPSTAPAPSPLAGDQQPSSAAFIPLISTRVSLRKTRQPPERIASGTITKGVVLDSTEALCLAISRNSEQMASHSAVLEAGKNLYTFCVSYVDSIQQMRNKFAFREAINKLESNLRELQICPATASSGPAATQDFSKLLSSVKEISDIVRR
The test is described as follows: Inhibition of p60-vabl tyrosine kinase isolated from Abelson murine leukemia virus (A-MuLV).
With `Nc1ncnc2c1ncn2[C@@H]1O[C@H](COC(=O)c2ccc(S(=O)(=O)Oc3ccccc3)cc2)[C@@H](O)[C@H]1O`, half-maximal inhibition (IC50) was put at 170 µM.

With `Nc1ncnc2c1ncn2[C@@H]1O[C@H](COC(=O)c2ccc(S(=O)(=O)Nc3ccccc3)cc2)[C@@H](O)[C@H]1O`, it took 19 µM to reach half-maximal inhibition (IC50).

`Nc1ncnc2c1ncn2[C@@H]1O[C@H](COC(=O)c2ccc(S(=O)(=O)NCc3ccccc3)cc2)[C@@H](O)[C@H]1O` had a 50% inhibitory concentration (IC50) of 45 µM.

Compound `Nc1ncnc2c1ncn2[C@@H]1O[C@H](COC(=O)c2ccc(S(N)(=O)=O)cc2)[C@@H](O)[C@H]1O` came in with an IC50 of 120 µM.

Turning to `Nc1ncnc2c1ncn2[C@@H]1O[C@H](COC(=O)c2ccc(S(=O)(=O)F)cc2)[C@@H](O)[C@H]1O`, the IC50 is 150 µM.

For `CC(=O)NC(Cc1ccc(OS(=O)(=O)c2ccc(C(=O)OC[C@H]3O[C@@H](n4cnc5c(N)ncnc54)[C@H](O)[C@@H]3O)cc2)cc1)C(N)=O` (some centres undefined), the concentration for half-maximal inhibition (IC50) turned out to be 120 µM.

`Nc1ncnc2c1ncn2[C@@H]1O[C@H](COC(=O)c2ccc(S(=O)(=O)NCCCc3ccccc3)cc2)[C@@H](O)[C@H]1O`: the IC50 is 56 µM.

The compound `CS(=O)(=O)c1ccc(C(=O)OC[C@H]2O[C@@H](n3cnc4c(N)ncnc43)[C@H](O)[C@@H]2O)cc1` yielded an IC50 of 63 µM.

`Nc1ncnc2c1ncn2[C@@H]1O[C@H](COC(=O)c2ccc(S(=O)(=O)NCCc3ccccc3)cc2)[C@@H](O)[C@H]1O`: the IC50 came to 50 µM.
